Data on eleven compounds can be found in US20260356819A1, “OXOISOINDOLINYL-SUBSTITUTED […] DERIVATIVE AND USE THEREOF” (GLUETACS THERAPEUTICS (SHANGHAI) CO., LTD., priority 2023, published 2026).

Assay type in all cases: cell-based
What all share (settings): compounds at 50 nM and 500 nM

The target of one experiment is T1, WEE1 (Homo sapiens, UniProt P30291+Q96SW2).
T1 construct: The supernatant was aspirated as the extracted total cell protein; endogenous in cells; host or cells: human peripheral blood mononuclear cells (hPBMCs)
T1 sequence (P30291 whole entry): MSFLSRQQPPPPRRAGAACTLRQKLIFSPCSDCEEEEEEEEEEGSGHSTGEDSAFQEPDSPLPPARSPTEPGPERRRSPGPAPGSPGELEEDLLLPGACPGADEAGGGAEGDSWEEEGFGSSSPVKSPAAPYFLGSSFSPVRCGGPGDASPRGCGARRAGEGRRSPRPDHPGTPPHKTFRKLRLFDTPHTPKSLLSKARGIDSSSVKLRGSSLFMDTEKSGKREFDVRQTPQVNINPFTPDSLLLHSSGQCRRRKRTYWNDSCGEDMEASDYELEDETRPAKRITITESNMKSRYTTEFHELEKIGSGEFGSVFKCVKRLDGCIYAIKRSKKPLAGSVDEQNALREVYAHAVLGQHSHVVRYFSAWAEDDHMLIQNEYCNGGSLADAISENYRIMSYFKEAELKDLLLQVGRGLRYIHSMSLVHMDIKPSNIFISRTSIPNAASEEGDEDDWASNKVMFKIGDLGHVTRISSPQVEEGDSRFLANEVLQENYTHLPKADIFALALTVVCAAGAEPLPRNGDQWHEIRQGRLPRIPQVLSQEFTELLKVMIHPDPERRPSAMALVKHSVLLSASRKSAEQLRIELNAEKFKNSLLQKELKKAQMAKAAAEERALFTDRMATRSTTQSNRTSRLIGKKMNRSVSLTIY
T1 sequence (Q96SW2 whole entry): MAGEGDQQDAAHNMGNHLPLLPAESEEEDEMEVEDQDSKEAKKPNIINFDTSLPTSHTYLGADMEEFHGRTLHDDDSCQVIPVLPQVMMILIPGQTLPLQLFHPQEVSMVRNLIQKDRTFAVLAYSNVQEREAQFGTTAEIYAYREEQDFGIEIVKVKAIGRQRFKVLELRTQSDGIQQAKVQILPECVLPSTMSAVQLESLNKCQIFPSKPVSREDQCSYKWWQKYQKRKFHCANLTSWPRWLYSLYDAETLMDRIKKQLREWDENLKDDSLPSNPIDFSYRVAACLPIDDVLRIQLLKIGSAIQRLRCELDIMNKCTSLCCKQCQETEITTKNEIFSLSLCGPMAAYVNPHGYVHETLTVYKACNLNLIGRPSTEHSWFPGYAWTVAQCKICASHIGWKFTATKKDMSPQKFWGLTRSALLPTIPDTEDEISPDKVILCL
T1 sequence (Q16531 whole entry partner): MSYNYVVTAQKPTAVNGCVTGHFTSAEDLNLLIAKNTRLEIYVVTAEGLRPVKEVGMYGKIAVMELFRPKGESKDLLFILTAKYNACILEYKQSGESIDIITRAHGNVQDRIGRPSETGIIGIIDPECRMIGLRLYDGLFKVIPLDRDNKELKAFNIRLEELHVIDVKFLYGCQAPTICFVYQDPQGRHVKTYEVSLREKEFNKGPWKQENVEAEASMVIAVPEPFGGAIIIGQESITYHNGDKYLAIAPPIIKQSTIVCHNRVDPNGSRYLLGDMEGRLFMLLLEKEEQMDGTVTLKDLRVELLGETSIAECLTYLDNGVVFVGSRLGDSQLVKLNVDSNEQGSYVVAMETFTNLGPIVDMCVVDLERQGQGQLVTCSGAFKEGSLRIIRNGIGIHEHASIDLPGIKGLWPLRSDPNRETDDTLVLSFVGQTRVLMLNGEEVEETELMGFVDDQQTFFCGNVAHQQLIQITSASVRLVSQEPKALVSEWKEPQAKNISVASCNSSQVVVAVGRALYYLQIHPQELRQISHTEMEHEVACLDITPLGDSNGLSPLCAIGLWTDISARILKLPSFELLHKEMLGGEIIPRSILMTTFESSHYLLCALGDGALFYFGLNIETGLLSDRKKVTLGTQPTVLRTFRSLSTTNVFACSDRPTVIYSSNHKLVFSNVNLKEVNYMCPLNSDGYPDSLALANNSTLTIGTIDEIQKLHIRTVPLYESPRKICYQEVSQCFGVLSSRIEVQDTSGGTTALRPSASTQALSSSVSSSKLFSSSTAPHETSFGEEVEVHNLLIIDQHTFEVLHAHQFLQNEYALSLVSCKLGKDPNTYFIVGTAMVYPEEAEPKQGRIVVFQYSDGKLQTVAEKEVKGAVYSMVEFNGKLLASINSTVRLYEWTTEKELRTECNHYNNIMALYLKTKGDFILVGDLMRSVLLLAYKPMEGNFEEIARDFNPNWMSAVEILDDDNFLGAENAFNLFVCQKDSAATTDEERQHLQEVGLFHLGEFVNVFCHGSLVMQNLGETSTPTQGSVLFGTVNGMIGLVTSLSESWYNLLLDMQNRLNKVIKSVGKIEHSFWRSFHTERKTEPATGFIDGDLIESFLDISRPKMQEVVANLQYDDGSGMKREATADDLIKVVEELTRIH
The experiment can be described thus: Western blot degradation of WEE1 in hPBMCs (24 h). The method in brief: (§1)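 Compounds were tested at 50 nM and 500 nM on hPBMCs (1×10^6 cells/mL) for 24 h, alongside DMSO. Proteins were detected by Western blot after denaturation at 95 °C; remaining protein computed from normalised band grayscale.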
A general note: In western blotting, separated proteins are transferred to a membrane and probed.

The next experiment deals with T2, IKZF1 (Homo sapiens, UniProt Q13422+Q96SW2).
T2 construct: The supernatant was aspirated as the extracted total cell protein; endogenous in cells; host or cells: human peripheral blood mononuclear cells (hPBMCs)
T2 sequence (Q13422 whole entry): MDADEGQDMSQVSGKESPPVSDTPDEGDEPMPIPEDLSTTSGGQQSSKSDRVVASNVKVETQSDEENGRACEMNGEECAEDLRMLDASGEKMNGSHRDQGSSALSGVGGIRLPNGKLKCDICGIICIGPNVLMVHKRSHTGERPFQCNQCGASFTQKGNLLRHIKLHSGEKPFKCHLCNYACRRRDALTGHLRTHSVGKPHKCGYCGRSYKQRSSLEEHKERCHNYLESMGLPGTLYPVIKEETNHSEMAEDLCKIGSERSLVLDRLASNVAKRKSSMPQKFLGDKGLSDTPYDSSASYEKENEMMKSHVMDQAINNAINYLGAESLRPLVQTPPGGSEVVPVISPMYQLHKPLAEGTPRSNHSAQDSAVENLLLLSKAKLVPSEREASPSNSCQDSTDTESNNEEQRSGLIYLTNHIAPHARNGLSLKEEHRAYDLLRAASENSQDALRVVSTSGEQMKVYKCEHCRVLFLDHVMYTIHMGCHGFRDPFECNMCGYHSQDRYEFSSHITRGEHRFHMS
T2 sequence (Q96SW2 whole entry): as the sequence (Q96SW2 whole entry) above
T2 sequence (Q16531 whole entry partner): as the sequence (Q16531 whole entry partner) above
The experiment can be described thus: Western blot degradation of IKZF1 in hPBMCs (24 h). The method in brief:
as §1

The target in the next experiment is T3, IKZF2 (Homo sapiens, UniProt Q96SW2+Q9UKS7).
T3 construct: The supernatant was aspirated as the extracted total cell protein; endogenous in cells; host or cells: human peripheral blood mononuclear cells (hPBMCs)
The experiment can be described thus: Western blot degradation of IKZF2 in hPBMCs (24 h). The gist of the method:
as §1

For the next experiment, the target named is T4, IKZF3 (Homo sapiens, UniProt Q96SW2+Q9UKT9).
T4 construct: The supernatant was aspirated as the extracted total cell protein; endogenous in cells; host or cells: human peripheral blood mononuclear cells (hPBMCs)
T4 sequence (Q9UKT9 whole entry): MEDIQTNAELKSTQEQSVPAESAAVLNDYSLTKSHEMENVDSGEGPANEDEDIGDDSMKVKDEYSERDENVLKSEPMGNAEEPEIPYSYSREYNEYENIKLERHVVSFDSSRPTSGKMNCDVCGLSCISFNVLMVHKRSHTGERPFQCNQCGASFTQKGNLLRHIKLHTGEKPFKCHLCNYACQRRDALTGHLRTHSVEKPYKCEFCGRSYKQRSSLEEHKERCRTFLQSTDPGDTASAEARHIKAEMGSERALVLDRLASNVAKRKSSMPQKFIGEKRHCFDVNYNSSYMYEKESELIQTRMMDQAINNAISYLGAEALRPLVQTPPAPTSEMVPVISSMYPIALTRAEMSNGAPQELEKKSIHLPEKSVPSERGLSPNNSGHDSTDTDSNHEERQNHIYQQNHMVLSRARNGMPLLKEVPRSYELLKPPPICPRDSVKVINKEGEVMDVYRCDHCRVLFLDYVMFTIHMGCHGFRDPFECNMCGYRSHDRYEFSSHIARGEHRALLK
T4 sequence (Q96SW2 whole entry): as the sequence (Q96SW2 whole entry) above
T4 sequence (Q16531 whole entry partner): as the sequence (Q16531 whole entry partner) above
The experiment can be described thus: Western blot degradation of IKZF3 in hPBMCs (24 h). The method in brief: as §1

The next experiment has as its target T5, CK1α (Homo sapiens, UniProt P48729+Q96SW2).
T5 construct: The supernatant was aspirated as the extracted total cell protein; endogenous in cells; host or cells: human peripheral blood mononuclear cells (hPBMCs)
The experiment can be described thus: Western blot degradation of CK1α in hPBMCs (24 h). The method in brief:
as §1

The target of another experiment is T6, GSPT1 (Homo sapiens, UniProt P15170+Q96SW2).
T6 construct: The supernatant was aspirated as the extracted total cell protein; endogenous in cells; host or cells: human peripheral blood mononuclear cells (hPBMCs)
T6 sequence (P15170 whole entry): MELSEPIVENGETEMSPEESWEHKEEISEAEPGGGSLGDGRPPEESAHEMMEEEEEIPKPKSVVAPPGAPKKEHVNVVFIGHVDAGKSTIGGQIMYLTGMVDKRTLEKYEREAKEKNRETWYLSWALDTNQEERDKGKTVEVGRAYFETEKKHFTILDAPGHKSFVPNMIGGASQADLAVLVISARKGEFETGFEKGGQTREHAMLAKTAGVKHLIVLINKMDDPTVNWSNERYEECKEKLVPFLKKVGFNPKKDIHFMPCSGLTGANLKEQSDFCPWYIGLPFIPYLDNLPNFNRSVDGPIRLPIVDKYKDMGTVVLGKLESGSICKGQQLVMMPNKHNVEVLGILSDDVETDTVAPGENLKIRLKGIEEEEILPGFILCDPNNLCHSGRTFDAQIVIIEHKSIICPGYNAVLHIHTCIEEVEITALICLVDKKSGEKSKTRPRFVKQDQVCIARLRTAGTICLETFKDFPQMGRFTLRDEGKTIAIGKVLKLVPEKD
T6 sequence (Q96SW2 whole entry): as the sequence (Q96SW2 whole entry) above
T6 sequence (Q16531 whole entry partner): as the sequence (Q16531 whole entry partner) above
Description: Western blot degradation of GSPT1 in hPBMCs (24 h). The method in brief: as §1

T5 sequence (P48729 whole entry): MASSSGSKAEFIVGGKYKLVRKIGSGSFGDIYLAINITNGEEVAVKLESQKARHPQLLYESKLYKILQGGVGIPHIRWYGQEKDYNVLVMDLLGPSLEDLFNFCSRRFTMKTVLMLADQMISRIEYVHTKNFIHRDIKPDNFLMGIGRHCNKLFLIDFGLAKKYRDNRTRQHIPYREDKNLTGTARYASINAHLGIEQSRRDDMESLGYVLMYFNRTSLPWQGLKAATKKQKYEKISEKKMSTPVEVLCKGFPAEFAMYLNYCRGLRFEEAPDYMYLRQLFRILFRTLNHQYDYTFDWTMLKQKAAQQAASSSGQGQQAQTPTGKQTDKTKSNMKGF
T5 sequence (Q96SW2 whole entry): as the sequence (Q96SW2 whole entry) above
T5 sequence (Q16531 whole entry partner): as the sequence (Q16531 whole entry partner) above

As for `O=C1CCN(N2C(=O)c3ccc(CN4CCN(c5ncnc6sccc56)CC4)cc3C2=O)C(=O)N1` [GT-08090, 2-(2,4-dioxotetrahydropyrimidin-1(2H)-yl)-5-((4-(thieno[2,3-d]pyrimidin-4-yl)piperazin-1-yl)methyl)isoindoline-1,3-dione], the “WEE1 substrate protein remaining %” value at WEE1 is given as “A (0% ≤ substrate protein remaining % ≤80%)”. Moreover, the “IKZF1 substrate protein remaining %” value on IKZF1 is reported as “B (80%< substrate protein remaining % ≤100%)”. The “IKZF2 substrate protein remaining %” value on IKZF2 was “B (80%< substrate protein remaining % ≤100%)”. The “IKZF3 substrate protein remaining %” value at IKZF3 is recorded as “B (80%< substrate protein remaining % ≤100%)”. Besides, the “CK1α substrate protein remaining %” value on CK1α is on record as “A (0% ≤ substrate protein remaining % ≤80%)”. Moreover, the “GSPT1 substrate protein remaining %” value at GSPT1 is given as “A (0% ≤ substrate protein remaining % ≤80%)”.
Take `Cc1csc2ncnc(N3CCN(Cc4ccc5c(c4)C(=O)N(N4CCC(=O)NC4=O)C5=O)CC3)c12` [GT-08091, 2-(2,4-dioxotetrahydropyrimidin-1(2H)-yl)-5-((4-(5-methylthieno[2,3-d]pyrimidin-4-yl)piperazin-1-yl)methyl)isoindoline-1,3-dione]: at WEE1, the “WEE1 substrate protein remaining %” value is “A (0% ≤ substrate protein remaining % ≤80%)”. Besides, on IKZF1, the “IKZF1 substrate protein remaining %” value is given as “B (80%< substrate protein remaining % ≤100%)”. Moreover, the “IKZF2 substrate protein remaining %” value at IKZF2 was “B (80%< substrate protein remaining % ≤100%)”. The “IKZF3 substrate protein remaining %” value at IKZF3 is listed as “B (80%< substrate protein remaining % ≤100%)”. Besides, the “CK1α substrate protein remaining %” value at CK1α is “A (0% ≤ substrate protein remaining % ≤80%)”. On GSPT1, the “GSPT1 substrate protein remaining %” value is recorded as “A (0% ≤ substrate protein remaining % ≤80%)”.
In the case of `Cc1cc2c(N3CCN(Cc4ccc5c(c4)C(=O)N(N4CCC(=O)NC4=O)C5=O)CC3)ncnc2s1` [GT-08092, 2-(2,4-dioxotetrahydropyrimidin-1(2H)-yl)-5-((4-(6-methylthieno[2,3-d]pyrimidin-4-yl)piperazin-1-yl)methyl)isoindoline-1,3-dione], at WEE1, the “WEE1 substrate protein remaining %” value is “A (0% ≤ substrate protein remaining % ≤80%)”. At IKZF1, the “IKZF1 substrate protein remaining %” value is “B (80%< substrate protein remaining % ≤100%)”. The “IKZF2 substrate protein remaining %” value at IKZF2 was “B (80%< substrate protein remaining % ≤100%)”. Besides, the “IKZF3 substrate protein remaining %” value on IKZF3 is recorded as “B (80%< substrate protein remaining % ≤100%)”. Further, the “CK1α substrate protein remaining %” value at CK1α is on record as “A (0% ≤ substrate protein remaining % ≤80%)”. Moreover, the “GSPT1 substrate protein remaining %” value at GSPT1 was “A (0% ≤ substrate protein remaining % ≤80%)”.
In the case of `CC(C)c1cc2c(N3CCN(Cc4ccc5c(c4)C(=O)N(N4CCC(=O)NC4=O)C5=O)CC3)ncnc2s1` [GT-08093, 2-(2,4-dioxotetrahydropyrimidin-1(2H)-yl)-5-((4-(6-isopropylthieno[2,3-d]pyrimidin-4-yl)piperazin-1-yl)methyl)isoindoline-1,3-dione], the “WEE1 substrate protein remaining %” value at WEE1 is “A (0% ≤ substrate protein remaining % ≤80%)”. Further, the “IKZF1 substrate protein remaining %” value on IKZF1 was “B (80%< substrate protein remaining % ≤100%)”. Moreover, at IKZF2, the “IKZF2 substrate protein remaining %” value is “B (80%< substrate protein remaining % ≤100%)”. Besides, the “IKZF3 substrate protein remaining %” value at IKZF3 is “B (80%< substrate protein remaining % ≤100%)”. Further, the “CK1α substrate protein remaining %” value at CK1α is on record as “A (0% ≤ substrate protein remaining % ≤80%)”. Also, the “GSPT1 substrate protein remaining %” value at GSPT1 is reported as “A (0% ≤ substrate protein remaining % ≤80%)”.
Take `Cc1sc2ncnc(N3CCN(Cc4ccc5c(c4)C(=O)N(N4CCC(=O)NC4=O)C5=O)CC3)c2c1C` [GT-08094, 5-((4-(5,6-dimethylthieno[2,3-d]pyrimidin-4-yl)piperazin-1-yl)methyl)-2-(2,4-dioxotetrahydropyrimidin-1(2H)-yl)isoindoline-1,3-dione]: the “WEE1 substrate protein remaining %” value on WEE1 was “A (0% ≤ substrate protein remaining % ≤80%)”. For the same compound, at IKZF1, the “IKZF1 substrate protein remaining %” value is “B (80%< substrate protein remaining % ≤100%)”. For the same compound, the “IKZF2 substrate protein remaining %” value on IKZF2 was “B (80%< substrate protein remaining % ≤100%)”. The “IKZF3 substrate protein remaining %” value on IKZF3 is listed as “B (80%< substrate protein remaining % ≤100%)”. The “CK1α substrate protein remaining %” value at CK1α is “A (0% ≤ substrate protein remaining % ≤80%)”. On GSPT1, the “GSPT1 substrate protein remaining %” value is “A (0% ≤ substrate protein remaining % ≤80%)”.
In the case of `Cc1sc2ncnc(N3CCCN(Cc4ccc5c(c4)C(=O)N(N4CCC(=O)NC4=O)C5=O)CC3)c2c1C` [GT-08095, 5-((4-(5,6-dimethylthieno[2,3-d]pyrimidin-4-yl)-1,4-diazepan-1-yl)methyl)-2-(2,4-dioxotetrahydropyrimidin-1(2H)-yl)isoindoline-1,3-dione], on WEE1, the “WEE1 substrate protein remaining %” value was “A (0% ≤ substrate protein remaining % ≤80%)”. Besides, the “IKZF1 substrate protein remaining %” value at IKZF1 is “B (80%< substrate protein remaining % ≤100%)”. Also, at IKZF2, the “IKZF2 substrate protein remaining %” value was “B (80%< substrate protein remaining % ≤100%)”. On IKZF3, the “IKZF3 substrate protein remaining %” value is “B (80%< substrate protein remaining % ≤100%)”. Moreover, the “CK1α substrate protein remaining %” value on CK1α is listed as “A (0% ≤ substrate protein remaining % ≤80%)”. Moreover, at GSPT1, the “GSPT1 substrate protein remaining %” value is reported as “B (80%< substrate protein remaining % ≤100%)”.
Consider `O=C1CCN(N2C(=O)c3ccc(CN4CCN(c5ncnc6sc(Br)cc56)CC4)cc3C2=O)C(=O)N1` [GT-08096, 5-((4-(6-bromothieno[2,3-d]pyrimidin-4-yl)piperazin-1-yl)methyl)-2-(2,4-dioxotetrahydropyrimidin-1(2H)-yl)isoindoline-1,3-dione], for which the “WEE1 substrate protein remaining %” value on WEE1 is on record as “A (0% ≤ substrate protein remaining % ≤80%)”. Moreover, at IKZF1, the “IKZF1 substrate protein remaining %” value is “B (80%< substrate protein remaining % ≤100%)”. Besides, the “IKZF2 substrate protein remaining %” value at IKZF2 is given as “B (80%< substrate protein remaining % ≤100%)”. The “IKZF3 substrate protein remaining %” value at IKZF3 is given as “B (80%< substrate protein remaining % ≤100%)”. The “CK1α substrate protein remaining %” value on CK1α was “A (0% ≤ substrate protein remaining % ≤80%)”. For the same compound, at GSPT1, the “GSPT1 substrate protein remaining %” value is “A (0% ≤ substrate protein remaining % ≤80%)”.
Turning to `O=C1CCN(N2C(=O)c3ccc(CN4CCN(c5ncnc6sc(-c7ccccc7)cc56)CC4)cc3C2=O)C(=O)N1` [GT-08097, 2-(2,4-dioxotetrahydropyrimidin-1(2H)-yl)-5-((4-(6-phenylthieno[2,3-d]pyrimidin-4-yl)piperazin-1-yl)methyl)isoindoline-1,3-dione], the “WEE1 substrate protein remaining %” value on WEE1 is “A (0% ≤ substrate protein remaining % ≤80%)”. Besides, the “IKZF1 substrate protein remaining %” value on IKZF1 is “B (80%< substrate protein remaining % ≤100%)”. Further, on IKZF2, the “IKZF2 substrate protein remaining %” value is listed as “B (80%< substrate protein remaining % ≤100%)”. Moreover, the “IKZF3 substrate protein remaining %” value on IKZF3 was “B (80%< substrate protein remaining % ≤100%)”. Besides, the “CK1α substrate protein remaining %” value on CK1α is recorded as “A (0% ≤ substrate protein remaining % ≤80%)”. Besides, the “GSPT1 substrate protein remaining %” value on GSPT1 is “A (0% ≤ substrate protein remaining % ≤80%)”.
Turning to `O=C1CCN(N2C(=O)c3ccc(CN4CCN(c5ncnc6scc(-c7ccccc7)c56)CC4)cc3C2=O)C(=O)N1` [GT-08098, 2-(2,4-dioxotetrahydropyrimidin-1(2H)-yl)-5-((4-(5-phenylthieno[2,3-d]pyrimidin-4-yl)piperazin-1-yl)methyl)isoindoline-1,3-dione], the “WEE1 substrate protein remaining %” value on WEE1 is “B (80%< substrate protein remaining % ≤100%)”. Moreover, on IKZF1, the “IKZF1 substrate protein remaining %” value was “B (80%< substrate protein remaining % ≤100%)”. Further, the “IKZF2 substrate protein remaining %” value on IKZF2 is given as “B (80%< substrate protein remaining % ≤100%)”. Also, at IKZF3, the “IKZF3 substrate protein remaining %” value was “B (80%< substrate protein remaining % ≤100%)”. For the same compound, the “CK1α substrate protein remaining %” value at CK1α was “B (80%< substrate protein remaining % ≤100%)”. The “GSPT1 substrate protein remaining %” value on GSPT1 is listed as “A (0% ≤ substrate protein remaining % ≤80%)”.
Consider `Cc1nc(N2CCN(Cc3ccc4c(c3)C(=O)N(N3CCC(=O)NC3=O)C4=O)CC2)c2c(-c3ccccc3)csc2n1` [GT-08099, 2-(2,4-dioxotetrahydropyrimidin-1(2H)-yl)-5-((4-(2-methyl-5-phenylthieno[2,3-d]pyrimidin-4-yl)piperazin-1-yl)methyl)isoindoline-1,3-dione], for which the “WEE1 substrate protein remaining %” value on WEE1 was “B (80%< substrate protein remaining % ≤100%)”. Besides, at IKZF1, the “IKZF1 substrate protein remaining %” value was “B (80%< substrate protein remaining % ≤100%)”. At IKZF2, the “IKZF2 substrate protein remaining %” value is “B (80%< substrate protein remaining % ≤100%)”. In addition, the “IKZF3 substrate protein remaining %” value on IKZF3 was “B (80%< substrate protein remaining % ≤100%)”. Further, the “CK1α substrate protein remaining %” value on CK1α is reported as “B (80%< substrate protein remaining % ≤100%)”. Further, the “GSPT1 substrate protein remaining %” value at GSPT1 is “A (0% ≤ substrate protein remaining % ≤80%)”.
On to `O=C1CCN(N2C(=O)c3ccc(CN4CCN(c5ncnc6sc7c(c56)CCC7)CC4)cc3C2=O)C(=O)N1` [GT-08103, 5-((4-(6,7-dihydro-5H-cyclopenta[4,5]thieno[2,3-d]pyrimidin-4-yl)piperazin-1-yl)methyl)-2-(2,4-dioxotetrahydropyrimidin-1(2H)-yl)isoindoline-1,3-dione], for which the “WEE1 substrate protein remaining %” value on WEE1 was “B (80%< substrate protein remaining % ≤100%)”. In addition, on IKZF1, the “IKZF1 substrate protein remaining %” value was “B (80%< substrate protein remaining % ≤100%)”. The “IKZF2 substrate protein remaining %” value on IKZF2 is given as “A (0% ≤ substrate protein remaining % ≤80%)”. In addition, the “IKZF3 substrate protein remaining %” value at IKZF3 is recorded as “A (0% ≤ substrate protein remaining % ≤80%)”. Further, on CK1α, the “CK1α substrate protein remaining %” value is given as “B (80%< substrate protein remaining % ≤100%)”. The “GSPT1 substrate protein remaining %” value at GSPT1 is on record as “B (80%< substrate protein remaining % ≤100%)”.
